Test results: US7118767B2, “Pharmaceutical composition for increasing the production of nitric oxide and IFN-γ, and process for preparation thereof” (Jakwang Co., Ltd., priority 2001, dated 2006)

Legend:
[1] = system: macrophages; test: Inhibitory effect of N^GMMA on NO production induced by liquids of Example 1 in macrophages; type: cell-based, mice; details: macrophages with liquids (1 mg/mL) of Example 1 and IFN-γ; FIG. 3
Procedure: (§1) The amount of NO production from macrophages was measured by Griess reaction by quantitizing nitrite (NO2^−), oxides of NO, accumulated on the broth. That is, 100 μL of Griess reagents in which 0.1% naphthylethylene diaminedihydrochloride and 1% sulfanilamide is mixed at the same amount and 100 μL of culture media was mixed, and after 10 minutes, absorbance was measured at 540 nm by ELISA reader. Standard curve using sodium nitrite as standard substance was drawn and the concentration of NO was determined from the absorbance.
To investigate if iNOS production from macrophages by the composition of the present invention is included in L-arginine-dependent process, the macrophages were treated liquids (1 mg/mL) of Example 1 in the presence of IFN-γ and NGMMA, the competitive inhibitor of NO production, and the amount of NO production was measured by the same method as Experiment 2.

[2] = system: macrophages; test: Inhibiting effect on iNOS production by NF-kB inhibitor (NO2^- concentration in macrophages); type: cell-based, mice
Procedure: as §1
Hereupon, macrophages were treated with recombinant IFN-γ (rIFN-γ) and liquids (1 mg/mL) of Example 1 followed by treatment with pyrrolidine dithiocarbamnate (PDTC) and N^α-Tosyl-phenylalanyl chloromethyl ketone (TPCK), which are NF-kB inhitors, respectively and the change of concentration of NO2^− was observed together with control group. The results are shown in the hereinbelow Table 1 [Inhibitory effect on iNOS production by NF-kB inhibitor].

CNC(=N)NCCC[C@H](N)C(=O)O [N^GMMA, N^G-monomethyl-L-arginine]
amount of NO production as the amount of N^GMMA increases [1]: tendency to decrease

S=C(S)N1CCCC1 [PDTC, pyrrolidine dithiocarbamnate]
Concentration of NO2^- ([2]; rIFN-γ (10 U/mL) + Liquids of Example 1 (1 mg/mL) + PDTC (100 μM)): 10.5 ± 2.8

B1: rIFN-γ: recombinant IFN-γ (rIFN-γ), used at 10 U/mL (protein, UniProt P01579 24-161, looked up)
Interferon gamma: QDPYVKEAENLKKYFNAGHSDVADNGTLFLGILKNWKEESDRKIMQSQIVSFYFKLFKNFKDDQSIQKSVETIKEDMNVKFFNSNKKKRDDFEKLTNYSVTDLNVQRKAIHELIQVMAELSPAAKTGKRKRSQMLFRG
Concentration of NO2^- ([2]; rIFN-γ (10 U/mL) only): 32 ± 3.2
